Measurements: patent US20100196321A1, “COMPOUNDS” (GLAXOSMITHKLINE LLC, priority 2009, published 2010)

Tests used:
[1] = system: sub-genomic HCV NS3-NS5B replicon of genotype 1a in Huh-7 cells; test: Replicon Luciferase Cell Based Assay, genotype 1a; design: species or system HCV genotype 1a; conditions: Hepatitis C virus, Huh-7, 48 hours
Description: (§1) A 10 mM stock solution in DMSO of each test compound was further diluted in DMSO in the first row of a 384-well, V-bottom microplate, to give 100 times the top concentration of the required dilution series. Dilutions of compound were prepared in 1:3 serial dilutions from the first row onwards robotically. A robot was also used to transfer 0.5 μL volumes from each dilution well into wells of white 384-well assay plates (Nunc #164610). Control wells received 0.5 μL of DMSO alone. Plates were made in duplicate for measuring HCV replication and cytotoxicity in the replicon cell lines.
(§2) Suspensions were prepared from cultures of Huh-7 cells stably transfected with sub-genomic HCV NS3—NS5B replicons of either genotype 1b (the ET subline described by Pietschmann, T., Lohmann, V., Kaul, A., Krieger, N., Rinck, G., Rutter, G., Strand, D. & Bartenschlager, R., Journal of Virology, 2002, 76, 4008-4021) or genotype 1a linked to a firefly luciferase reporter gene. Monolayers nearing confluency were stripped from growth flasks with versene-trypsin solution and the cells re-suspended in assay medium comprising DMEM (Invitrogen #11965-092) supplemented with 5% v/v foetal calf serum, 1% v/v non-essential amino acids solution, 100 units/ml penicillin, 100 μg/ml streptomycin and 2 mM GlutaMAX-1. 50 μL of suspension containing 5,000 cells of either genotype 1b or genotype 1a luciferase replicon were added to all wells, except medium controls, of the assay plate with a Multidrop Combi (Thermo Scientific Corporation) and the plate incubated for 48 hours at 37° C. in a 5% CO2 atmosphere. A solution of Steady-Glo cytolytic buffer/luciferase substrate (Promega #E2550) was prepared according to the manufacturer's instructions, and 20 μL were added to each well with a Multidrop Combi. To measure cytotoxicity, a solution of CellTiter-Glo Luminescent Cell Viability Assay reagent (Promega #G7573) was prepared according to the manufacturer's instructions, and 20 ul were added to each well with a Multidrop Combi. The plates were then read for luminescence on an Envision Multilabel Reader (Perkin Elmer)
(§3) Potency: The luminescence values from all compound-free wells containing cells were averaged to obtain a positive control value. The mean luminescence value from the compound-free wells that had received no cells was used to provide the negative (background) control value. After the subtraction of the mean background from all values, the readings from wells at each compound concentration were expressed as a percentage of the positive control signal. The quantifiable and specific reduction of luciferase signal in the presence of a drug is a direct measure of replicon inhibition. The BioAssay application and XC50 module were used to plot the curve of percentage inhibition against compound concentration and derive the 50% inhibitory concentration (IC50) for the compound.

[2] = system: sub-genomic HCV NS3-NS5B replicon of genotype 1b (ET subline) in Huh-7 cells; test: Replicon Luciferase Cell Based Assay, genotype 1b; design: species or system HCV genotype 1b; conditions: Hepatitis C virus, Huh-7, 48 h, read-out: Genotype 1b (IC50 μM)
Description: as §1, §2, §3

Row | Compound | IC50 [1] | IC50 [2]
1 | COc1ccc2c(O[C@@H]3C[C@H]4C(=O)N[C@]5(C(=O)NS(=O)(=O)C6CC6)C[C@H]5/C=C\CCCCC[C@H](NC(=O)N5CCS(=O)(=O)CC5)C(=O)N4C3)cc(-c3nc(C(C)C)cs3)nc2c1C [Example 12, (2R,6S,13aS,14aR,16aS)-N-(cyclopropylsulfonyl)-6-{[(1,1-dioxido-4-thiomorpholinyl)carbonyl]amino}-2-{[8-methyl-2-[4-(1-methylethyl)-1,3-thiazol-2-yl]-7-(methyloxy)-4-quinolinyl]oxy}-5,16-dioxo-1,2,3,6,7,8,9,10,11,13a,14,15,16,16a-tetradecahydrocyclopropa[e]pyrrolo[1,2-a][1,4]diazacyclopentadecine-14a(5H)-carboxamide] | < 0.01 µM | < 0.01 µM
2 | COc1ccc2c(O[C@@H]3C[C@H]4C(=O)N[C@]5(C(=O)NS(=O)(=O)C6CC6)C[C@H]5/C=C\CCCCC[C@H](NC(=O)N(C)C(C)C)C(=O)N4C3)cc(-c3nc(C4CC4)cs3)nc2c1C [Example 7, (2R,6S,13aS,14aR,16aS)-N-(cyclopropylsulfonyl)-2-{[2-(4-cyclopropyl-1,3-thiazol-2-yl)-8-methyl-7-(methyloxy)-4-quinolinyl]oxy}-6-({[methyl(1-methylethyl)amino]carbonyl}amino)-5,16-dioxo-1,2,3,6,7,8,9,10,11,13a,14,15,16,16a-tetradecahydrocyclopropa[e]pyrrolo[1,2-a][1,4]diazacyclopentadecine-14a(5H)-carboxamide] | < 0.01 µM | < 0.01 µM
3 | COc1ccc2c(O[C@@H]3C[C@H]4C(=O)N[C@]5(C(=O)NS(=O)(=O)C6CC6)C[C@H]5/C=C\CCCCC[C@H](NC(=O)N(C)C(C)(C)C)C(=O)N4C3)cc(-c3nc(C4CC4)cs3)nc2c1C [Example 9, (2R,6S,13aS,14aR,16aS)-N-(cyclopropylsulfonyl)-2-{[2-(4-cyclopropyl-1,3-thiazol-2-yl)-8-methyl-7-(methyloxy)-4-quinolinyl]oxy}-6-({[(1,1-dimethylethyl)(methyl)amino]carbonyl}amino)-5,16-dioxo-1,2,3,6,7,8,9,10,11,13a,14,15,16,16a-tetradecahydrocyclopropa[e]pyrrolo[1,2-a][1,4]diazacyclopentadecine-14a(5H)-carboxamide] | < 0.01 µM | < 0.01 µM
4 | COc1ccc2c(O[C@@H]3C[C@H]4C(=O)N[C@]5(C(=O)NS(=O)(=O)C6CC6)C[C@H]5/C=C\CCCCC[C@H](NC(=O)N5CCCC5)C(=O)N4C3)cc(-c3nc(C(C)C)cs3)nc2c1C [Example 15, (2R,6S,13aS,14aR,16aS)-N-(cyclopropylsulfonyl)-2-{[8-methyl-2-[4-(1-methylethyl)-1,3-thiazol-2-yl]-7-(methyloxy)-4-quinolinyl]oxy}-5,16-dioxo-6-[(1-pyrrolidinylcarbonyl)amino]-1,2,3,6,7,8,9,10,11,13a,14,15,16,16a-tetradecahydrocyclopropa[e]pyrrolo[1,2-a][1,4]diazacyclopentadecine-14a(5H)-carboxamide] | < 0.01 µM | < 0.01 µM
5 | COc1ccc2c(O[C@@H]3C[C@H]4C(=O)N[C@]5(C(=O)NS(=O)(=O)C6CC6)C[C@H]5/C=C\CCCCC[C@H](NC(=O)N5CC(F)(F)C5)C(=O)N4C3)cc(-c3nc(C4CC4)cs3)nc2c1C [Example 33, (2R,6S,13aS,14aR,16aS,Z)-N-(cyclopropylsulfonyl)-2-(2-(4-cyclopropylthiazol-2-yl)-7-methoxy-8-methylquinolin-4-yloxy)-6-(3,3-difluoroazetidine-1-carboxamido)-5,16-dioxo-1,2,3,5,6,7,8,9,10,11,13a,14,14a,15,16,16a-hexadecahydrocyclopropa[e]pyrrolo[1,2-a][1,4]diazacyclopentadecine-14a-carboxamide] | < 0.01 µM | < 0.01 µM
6 | COc1ccc2c(O[C@@H]3C[C@H]4C(=O)N[C@]5(C(=O)NS(=O)(=O)C6CC6)C[C@H]5/C=C\CCCCC[C@H](NC(=O)N5CCC(CO)CC5)C(=O)N4C3)cc(-c3nc(C(C)C)cs3)nc2c1C [Example 25, (2R,6S,13aS,14aR,16aS)-N-(cyclopropylsulfonyl)-6-({[4-(hydroxymethyl)-1-piperidinyl]carbonyl}amino)-2-{[8-methyl-2-[4-(1-methylethyl)-1,3-thiazol-2-yl]-7-(methyloxy)-4-quinolinyl]oxy}-5,16-dioxo-1,2,3,6,7,8,9,10,11,13a,14,15,16,16a-tetradecahydrocyclopropa[e]pyrrolo[1,2-a][1,4]diazacyclopentadecine-14a(5H)-carboxamide] | < 0.01 µM | < 0.01 µM
7 | COc1ccc2c(O[C@@H]3C[C@H]4C(=O)N[C@]5(C(=O)NS(=O)(=O)C6CC6)C[C@H]5/C=C\CCCCC[C@H](NC(=O)N5C[C@@H](C)O[C@@H](C)C5)C(=O)N4C3)cc(-c3nc(C(C)C)cs3)nc2c1C [Example 11, (2R,6S,13aS,14aR,16aS)-N-(cyclopropylsulfonyl)-6-({[(2R,6S)-2,6-dimethyl-4-morpholinyl]carbonyl}amino)-2-{[8-methyl-2-[4-(1-methylethyl)-1,3-thiazol-2-yl]-7-(methyloxy)-4-quinolinyl]oxy}-5,16-dioxo-1,2,3,6,7,8,9,10,11,13a,14,15,16,16a-tetradecahydrocyclopropa[e]pyrrolo[1,2-a][1,4]diazacyclopentadecine-14a(5H)-carboxamide] | < 0.01 µM | < 0.01 µM
8 | CCCN(CC1CC1)C(=O)N[C@H]1CCCCC/C=C\[C@@H]2C[C@@]2(C(=O)NS(=O)(=O)C2CC2)NC(=O)[C@@H]2C[C@@H](Oc3cc(-c4nc(C(C)C)cs4)nc4c(C)c(OC)ccc34)CN2C1=O [Example 19, (2R,6S,13aS,14aR,16aS)-6-({[(cyclopropylmethyl)(propyl)amino]carbonyl}amino)-N-(cyclopropylsulfonyl)-2-{[8-methyl-2-[4-(1-methylethyl)-1,3-thiazol-2-yl]-7-(methyloxy)-4-quinolinyl]oxy}-5,16-dioxo-1,2,3,6,7,8,9,10,11,13a,14,15,16,16a-tetradecahydrocyclopropa[e]pyrrolo[1,2-a][1,4]diazacyclopentadecine-14a(5H)-carboxamide] | < 0.01 µM | < 0.01 µM
9 | COc1ccc2c(O[C@@H]3C[C@H]4C(=O)N[C@]5(C(=O)NS(=O)(=O)C6CC6)C[C@H]5/C=C\CCCCC[C@H](NC(=O)N5CC(F)(F)C5)C(=O)N4C3)cc(-c3nc(C(C)C)cs3)nc2c1C [Example 35, (2R,6S,13aS,14aR,16aS,Z)-N-(cyclopropylsulfonyl)-6-(3,3-difluoroazetidine-1-carboxamido)-2-(2-(4-isopropylthiazol-2-yl)-7-methoxy-8-methylquinolin-4-yloxy)-5,16-dioxo-1,2,3,5,6,7,8,9,10,11,13a,14,14a,15,16,16a-hexadecahydrocyclopropa[e]pyrrolo[1,2-a][1,4]diazacyclopentadecine-14a-carboxamide] | < 0.01 µM | < 0.01 µM
10 | COc1ccc2c(O[C@@H]3C[C@H]4C(=O)N[C@]5(C(=O)NS(=O)(=O)C6CC6)C[C@H]5/C=C\CCCCC[C@H](NC(=O)N5CCC5)C(=O)N4C3)cc(-c3nc(C(C)C)cs3)nc2c1C [Example 18, (2R,6S,13aS,14aR,16aS)-6-[(1-azetidinylcarbonyl)amino]-N-(cyclopropylsulfonyl)-2-{[8-methyl-2-[4-(1-methylethyl)-1,3-thiazol-2-yl]-7-(methyloxy)-4-quinolinyl]oxy}-5,16-dioxo-1,2,3,6,7,8,9,10,11,13a,14,15,16,16a-tetradecahydrocyclopropa[e]pyrrolo[1,2-a][1,4]diazacyclopentadecine-14a(5H)-carboxamide] | < 0.01 µM | < 0.01 µM
11 | CCN(CC)C(=O)N[C@H]1CCCCC/C=C\[C@@H]2C[C@@]2(C(=O)NS(=O)(=O)C2CC2)NC(=O)[C@@H]2C[C@@H](Oc3cc(-c4nc(C(F)(F)F)cs4)nc4c(Cl)c(OC)ccc34)CN2C1=O [Example 29, Cycloprobanesulfonic acid [18-[8-chloro-7-methoxy-2-(4-trifluoromethyl-thiazol-2-yl)-quinolin-4-yloxy]-14-(3,3-diethyl-ureido)-2,15-dioxo-3,16-diaza-tricyclo[14.3.0.04,6]nonadec-7-ene-4-carbonyl]-amide] | < 0.01 µM | < 0.01 µM
